Measured values published in patent US9353094B2, “Substituted quinoxalines as kinase inhibitors” (BOARD OF REGENTS OF THE UNIVERSITY OF NEBRASKA, priority 2010, dated 2016).

What follows are molecules tested on panel of cancer cell lines (assay: Growth inhibition assay, whole panel). Conditions: 20 μM, 72 h.
Type: cell-based, human
Procedure: (§1) The compounds were screened in a growth inhibition assay at 20 μM over a 72 h period in a panel of cancer cell lines (lung-A549; pancreatic-Aspc1; colon-HT29; breast-MDAMB231; prostate-PC3; ovarian-SKOV3 and bone-U2OS) and the results are summarized in Table 2. […] This size effect was also observed with the urea compounds from the secondary amine (6j vs. 6l and 6k vs. 6m).
(§2) Cell Growth Inhibition Assay. Human lung A549, human pancreatic AsPC1, human colorectal HT-29, human breast MDA-MB-231, human prostate PC3, human ovarian SKOV3, and human osteosarcoma U2OS tumor cell lines were cultured in basal media containing 10% FBS and maintained in a 37° C. incubator with 5% CO2. All compounds were screened in 96 well microtiter plate format. In general, each cell line was plated at optimal assay density in 95 μl of propagation media in 96 well plates and incubated overnight. The next day, a standard alamar blue assay was performed (see below) on representative wells of each cell line for a Tz calculation. Subsequently, cells were treated in duplicate with a 5 μl volume of either vehicle only, positive controls etoposide and taxol, or test compounds at 20 μM (highest soluble compound concentration). The treated cells were incubated for 72 h and then assayed for growth by alamar blue assay. Briefly, 10 μl of reagent was added to each well and the plates returned to 37° C. After 3 h, fluorescence at 544ex/590em was measured using a SpectraMax M5 (Molecular Devices) plate reader. Growth is represented as a percentage of the control cells that were treated with vehicle only and % growth inhibition was determined using the NCI algorithm: Tz=number of untreated cells at zero time, C=Number of control cells at 72 h time, and T=number of compound treated cells at 72 h time; 100*([T−Tz]/[C−Tz]).
With `S=C(Nc1ccccc1)Nc1ccc2nc(-c3ccco3)c(-c3ccco3)nc2c1` [6a] the “growth inhibition of the various cancer cell lines (in words)” value (from here on “growth inhibition … (in words)”) was “active”. For `O=[N+]([O-])c1ccc(NC(=S)Nc2ccc3nc(-c4ccco4)c(-c4ccco4)nc3c2)cc1` [6d], the “growth inhibition … (in words)” value was “active”. With `O=C(Nc1ccc2nc(-c3ccco3)c(-c3ccco3)nc2c1)N1CCCC1` [6h] the “growth inhibition … (in words)” value was “active”. In the case of `O=C(Nc1ccc2nc(-c3ccco3)c(-c3ccco3)nc2c1)N1CCC(Cc2ccccc2)CC1` [6k], the “growth inhibition … (in words)” value is reported as “active”. With `O=C(Nc1ccc2nc(-c3ccco3)c(-c3ccco3)nc2c1)N1CCOCC1` [6m] the “growth inhibition … (in words)” value was “active”.

These molecules were tested on human ovarian SKOV3 tumor cell line (assay: Cell growth inhibition assay (alamar blue)). Conditions: SKOV3, 20 μM, 72 h.
Type: cell-based
Procedure: as §1, §2
`S=C(Nc1ccccc1)Nc1ccc2nc(-c3ccco3)c(-c3ccco3)nc2c1` [6a] was tested, and the “% Growth inhibition at 20 μM” value was “Inactive”. For `O=[N+]([O-])c1ccc(NC(=S)Nc2ccc3nc(-c4ccco4)c(-c4ccco4)nc3c2)cc1` [6d], the “% Growth inhibition at 20 μM” value was “Inactive”. `O=C(Nc1ccc2nc(-c3ccco3)c(-c3ccco3)nc2c1)N1CCCC1` [6h] was tested, and the “% Growth inhibition at 20 μM” value was 16.9 ± 4.9%. `O=C(Nc1ccc2nc(-c3ccco3)c(-c3ccco3)nc2c1)N1CCC(Cc2ccccc2)CC1` [6k] was tested, and the “% Growth inhibition at 20 μM” value was 47.6 ± 2.5%. For `O=C(Nc1ccc2nc(-c3ccco3)c(-c3ccco3)nc2c1)N1CCOCC1` [6m], the “% Growth inhibition at 20 μM” value was “Inactive”.

What follows are molecules tested on human osteosarcoma U2OS tumor cell line (assay: Cell growth inhibition assay (alamar blue)). Conditions: 72 h.
Type: cell-based
Procedure: as §1, §2
For `S=C(Nc1ccccc1)Nc1ccc2nc(-c3ccco3)c(-c3ccco3)nc2c1` [6a], the “% Growth inhibition at 20 μM” value was 21.4 ± 8.4%. In the case of `O=[N+]([O-])c1ccc(NC(=S)Nc2ccc3nc(-c4ccco4)c(-c4ccco4)nc3c2)cc1` [6d], the “% Growth inhibition at 20 μM” value is reported as 32.2 ± 0.1%. With `O=C(Nc1ccc2nc(-c3ccco3)c(-c3ccco3)nc2c1)N1CCCC1` [6h] the “% Growth inhibition at 20 μM” value was 46.5 ± 4.4%. In the case of `O=C(Nc1ccc2nc(-c3ccco3)c(-c3ccco3)nc2c1)N1CCC(Cc2ccccc2)CC1` [6k], the “% Growth inhibition at 20 μM” value is reported as 80.3 ± 2.4%. `O=C(Nc1ccc2nc(-c3ccco3)c(-c3ccco3)nc2c1)N1CCOCC1` [6m] was tested, and the “% Growth inhibition at 20 μM” value was “Inactive”.

Each molecule was assayed on human colorectal HT-29 tumor cell line (assay: Cell growth inhibition assay (alamar blue)). Conditions: HT29, 20 μM, 72 h.
Type: cell-based
Procedure: as §1, §2
With `S=C(Nc1ccccc1)Nc1ccc2nc(-c3ccco3)c(-c3ccco3)nc2c1` [6a] the “% Growth inhibition at 20 μM” value was 26.1 ± 15.0%. `O=[N+]([O-])c1ccc(NC(=S)Nc2ccc3nc(-c4ccco4)c(-c4ccco4)nc3c2)cc1` [6d] was tested, and the “% Growth inhibition at 20 μM” value was 42.0 ± 1.9%. With `O=C(Nc1ccc2nc(-c3ccco3)c(-c3ccco3)nc2c1)N1CCCC1` [6h] the “% Growth inhibition at 20 μM” value was 16.7 ± 3.7%. For `O=C(Nc1ccc2nc(-c3ccco3)c(-c3ccco3)nc2c1)N1CCC(Cc2ccccc2)CC1` [6k], the “% Growth inhibition at 20 μM” value was 55.2 ± 4.1%. For `O=C(Nc1ccc2nc(-c3ccco3)c(-c3ccco3)nc2c1)N1CCOCC1` [6m], the “% Growth inhibition at 20 μM” value was 19.4 ± 3.6%.

These molecules were tested on human pancreatic AsPC1 tumor cell line (assay: Cell growth inhibition assay (alamar blue)). Conditions: AsPC1, 20 μM, 72 h.
Type: cell-based
Procedure: as §1, §2
`S=C(Nc1ccccc1)Nc1ccc2nc(-c3ccco3)c(-c3ccco3)nc2c1` [6a] was tested, and the “% Growth inhibition at 20 μM” value was “Inactive”. In the case of `O=[N+]([O-])c1ccc(NC(=S)Nc2ccc3nc(-c4ccco4)c(-c4ccco4)nc3c2)cc1` [6d], the “% Growth inhibition at 20 μM” value is reported as “Inactive”. With `O=C(Nc1ccc2nc(-c3ccco3)c(-c3ccco3)nc2c1)N1CCCC1` [6h] the “% Growth inhibition at 20 μM” value was 11.6 ± 4.2%. In the case of `O=C(Nc1ccc2nc(-c3ccco3)c(-c3ccco3)nc2c1)N1CCC(Cc2ccccc2)CC1` [6k], the “% Growth inhibition at 20 μM” value is reported as >100%. In the case of `O=C(Nc1ccc2nc(-c3ccco3)c(-c3ccco3)nc2c1)N1CCOCC1` [6m], the “% Growth inhibition at 20 μM” value is reported as “Inactive”.

Each molecule was assayed on human prostate PC3 tumor cell line (assay: Cell growth inhibition assay (alamar blue)). Conditions: PC3, 20 μM, 72 h.
Type: cell-based
Procedure: as §1, §2
For `S=C(Nc1ccccc1)Nc1ccc2nc(-c3ccco3)c(-c3ccco3)nc2c1` [6a], the “% Growth inhibition at 20 μM” value was 56.8 ± 1.4%. With `O=[N+]([O-])c1ccc(NC(=S)Nc2ccc3nc(-c4ccco4)c(-c4ccco4)nc3c2)cc1` [6d] the “% Growth inhibition at 20 μM” value was 43.4 ± 9.3%. For `O=C(Nc1ccc2nc(-c3ccco3)c(-c3ccco3)nc2c1)N1CCCC1` [6h], the “% Growth inhibition at 20 μM” value was 53.1 ± 9.9%. With `O=C(Nc1ccc2nc(-c3ccco3)c(-c3ccco3)nc2c1)N1CCC(Cc2ccccc2)CC1` [6k] the “% Growth inhibition at 20 μM” value was >100%. In the case of `O=C(Nc1ccc2nc(-c3ccco3)c(-c3ccco3)nc2c1)N1CCOCC1` [6m], the “% Growth inhibition at 20 μM” value is reported as 48.9 ± 7.5%.

Each molecule was assayed on human breast MDA-MB-231 tumor cell line (assay: Cell growth inhibition assay (alamar blue)). Conditions: MDA-MB-231, 20 μM, 72 h.
Type: cell-based
Procedure: as §1, §2
In the case of `S=C(Nc1ccccc1)Nc1ccc2nc(-c3ccco3)c(-c3ccco3)nc2c1` [6a], the “% Growth inhibition at 20 μM” value is reported as 19.1 ± 12.5%. In the case of `O=[N+]([O-])c1ccc(NC(=S)Nc2ccc3nc(-c4ccco4)c(-c4ccco4)nc3c2)cc1` [6d], the “% Growth inhibition at 20 μM” value is reported as 9.0 ± 4.7%. In the case of `O=C(Nc1ccc2nc(-c3ccco3)c(-c3ccco3)nc2c1)N1CCCC1` [6h], the “% Growth inhibition at 20 μM” value is reported as 18.2 ± 7.0%. `O=C(Nc1ccc2nc(-c3ccco3)c(-c3ccco3)nc2c1)N1CCC(Cc2ccccc2)CC1` [6k] was tested, and the “% Growth inhibition at 20 μM” value was 90.8 ± 4.5%. In the case of `O=C(Nc1ccc2nc(-c3ccco3)c(-c3ccco3)nc2c1)N1CCOCC1` [6m], the “% Growth inhibition at 20 μM” value is reported as 10.9 ± 5.0%.

The molecules below were run on human lung A549 tumor cell line (assay: Cell growth inhibition assay (alamar blue)). Conditions: A549, 20 μM, 72 h.
Type: cell-based
Procedure: as §1, §2
With `S=C(Nc1ccccc1)Nc1ccc2nc(-c3ccco3)c(-c3ccco3)nc2c1` [6a] the “% Growth inhibition at 20 μM” value was 18.0 ± 0.1%. `O=[N+]([O-])c1ccc(NC(=S)Nc2ccc3nc(-c4ccco4)c(-c4ccco4)nc3c2)cc1` [6d] was tested, and the “% Growth inhibition at 20 μM” value was 19.2 ± 8.9%. In the case of `O=C(Nc1ccc2nc(-c3ccco3)c(-c3ccco3)nc2c1)N1CCCC1` [6h], the “% Growth inhibition at 20 μM” value is reported as 23.3 ± 2.9%. In the case of `O=C(Nc1ccc2nc(-c3ccco3)c(-c3ccco3)nc2c1)N1CCC(Cc2ccccc2)CC1` [6k], the “% Growth inhibition at 20 μM” value is reported as 93.1 ± 7.8%. With `O=C(Nc1ccc2nc(-c3ccco3)c(-c3ccco3)nc2c1)N1CCOCC1` [6m] the “% Growth inhibition at 20 μM” value was 39.7 ± 12.8%.
